Experimental findings from patent US12466834B2, “Imidazodiazepinediones and methods of use thereof” (GFB (ABC), LLC, priority 2018, dated 2025) are described below.

pIC50: −log10 of the molar value.

The assay addresses T1, human TRPC5 (Homo sapiens, UniProt Q9UL62).
T1 construct: expressed in transfected cells
T1 sequence (Q9UL62 1-973): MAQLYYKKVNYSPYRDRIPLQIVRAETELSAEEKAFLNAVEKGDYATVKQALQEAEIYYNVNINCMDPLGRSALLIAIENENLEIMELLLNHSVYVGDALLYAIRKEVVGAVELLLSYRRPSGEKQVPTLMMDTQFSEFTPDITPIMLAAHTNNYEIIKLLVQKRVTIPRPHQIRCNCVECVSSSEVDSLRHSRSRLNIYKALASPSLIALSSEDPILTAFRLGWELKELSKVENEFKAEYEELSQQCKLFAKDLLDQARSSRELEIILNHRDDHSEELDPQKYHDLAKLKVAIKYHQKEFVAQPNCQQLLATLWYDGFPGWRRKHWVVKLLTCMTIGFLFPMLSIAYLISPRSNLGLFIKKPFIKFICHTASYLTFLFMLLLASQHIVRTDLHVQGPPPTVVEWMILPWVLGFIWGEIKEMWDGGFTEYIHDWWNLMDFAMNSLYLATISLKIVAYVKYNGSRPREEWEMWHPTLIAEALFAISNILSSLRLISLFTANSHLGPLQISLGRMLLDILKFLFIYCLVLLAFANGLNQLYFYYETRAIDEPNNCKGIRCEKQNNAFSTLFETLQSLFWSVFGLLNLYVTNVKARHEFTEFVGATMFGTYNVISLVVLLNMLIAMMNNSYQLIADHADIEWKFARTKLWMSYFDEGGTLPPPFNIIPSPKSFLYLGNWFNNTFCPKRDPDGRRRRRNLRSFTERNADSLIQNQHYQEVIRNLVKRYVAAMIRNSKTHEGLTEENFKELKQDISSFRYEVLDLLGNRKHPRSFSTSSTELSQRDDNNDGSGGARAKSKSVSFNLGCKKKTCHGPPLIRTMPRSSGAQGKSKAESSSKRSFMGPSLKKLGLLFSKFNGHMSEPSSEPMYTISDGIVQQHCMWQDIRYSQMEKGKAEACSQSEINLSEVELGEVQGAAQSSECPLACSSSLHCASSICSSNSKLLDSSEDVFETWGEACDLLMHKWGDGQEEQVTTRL
Description: Automated patch clamp assay (QPatch), antagonist mode. The format is cell-based. As to conditions: HEK-TREx hTRPC5 cells; channel activated with Rosiglitazone 30 μM; normalised to ML-204 block; read-out: Qpatch Potency Range. As to the method:
ICLN-1633 cells (HEK-TREx hTRPC5) expressing TRPC5 were generated as follows. Commercially available HekTrex-293 cells were seeded at 0.7×10^6 cells/well in a 1×6-well plate 24 hrs prior to transfection using 2 mL cell growth media containing no antibiotics (1× DMEM/high glucose (Hyclone #SH30022.02); 10% fetal bovine serum (Sigma) 2 mM sodium pyruvate, 10 mM HEPES). The human TRPC5 coding sequence (NM_012471 with a silent T478C mutation) was cloned into pcDNA5/TO (Invitrogen; Cat No. V103320) using hygromycin as the resistance gene and the plasmid (SEQ ID NO:1) propagated using T-Rex-293 cells (Invitrogen; Cat No. R71007) following manufacturer's directions. On day 2, 2 μg of plasmid DNA plus 6 μl of Xtreme-GENE HP reagent in Optimem (200 μl total volume) was prepared and incubated for 15 min at room temperature. This plasmid solution was then gently overlayed dropwise onto each well and the plate was gently swirled to mix complex with the media for approximately 30 seconds. Transfected cells were incubated at 37° C. in a 10% CO2 incubator for 24 hrs. The transfected cells were harvested and transferred into 2×150 mm dishes containing cell growth media with no antibiotics at 37° C.
The next day selection was initiated to generate a stable pool by adding cell growth media containing 150 μg/mL Hygromycin and 5 μg/mL Blasticidin and cells were allowed to grow. Media with the selection agent was changed every 1-2 days as needed to remove dead cells. After 7 days, the hygromycin concentration was reduced to 75 μg/mL and cells growth was allowed to continue.
Single clones were selected as follows. The stable pool was diluted to 10 cells/mL and seeded (100 μl/well) into 24×96 well plates (˜1 cell/well) and allowed to grow for 7 days in cell growth media. Fresh media (100 μl) was added and the cells allowed to grow for another 1-2 weeks and then stored frozen or used immediately.
The automated electrophysiological assay was carried out at room temperature. On the day of the experiment, TRPC5 cells were cultured according to our Standard Operating Procedure. Briefly, cells were harvested using TrypLE™ Express, re-suspended in serum free medium, added to the automated platform and used within 0.5-3 hours. Internal and external physiological solutions were freshly prepared prior to the assay. The external solution contained: 145 mM NaCl, 4 mM KCl, 2 mM CaCl2, 1 mM MgCl2, 10 mM HEPES, 10 mM glucose, pH 7.4 with NaOH and 310 mOsm/L. The internal solution contained 120 mM L-aspartic acid, 120 mM CsOH·H2O, 20 mM CsCl, 2 mM MgCl2, 8.8 mM CaCl2, 10 mM EGTA, 10 mM HEPES and 2 mM Na2ATP; pH 7.2 with CsOH and 330 mOsm/L. The free internal Ca^2+ concentration was buffered to 1 μM, according to the WCabuf software. The automated electrophysiological platform QPatch 16 from Sophion (Denmark) was used to carry out the compounds profiling. The series resistance and quality of seals were continuously monitored during the experiments. Data were analyzed using Sophion QPatch assay software 5.6 (Odense). Data were normalized using the maximum activation obtained during the pre-compound agonist application as the top value (1.0) and maximum inhibition induced by ML-204 as the bottom value (0.0). IC50 values were calculated using a least squares regression algorithm (Hill equation).
To monitor the ion currents, a voltage ramp from −100 mV to +100 mV, over 300 ms, was applied every 10 seconds, from a holding potential of −60 mV. Antagonist-mode: After recording for a minimum of 60 seconds control period, the EC60 concentration of the TRPC5 agonist, Rosiglitazone (30 μM), was applied to activate the channel. After reaching steady-state, co-application of increasing concentrations of test compound were applied followed by two applications of Rosiglitazone EC60 and a saturating concentration of the specific blocker ML-204 (100 μM).
(In general: In patch-clamp work, channel activity is measured electrically.)
As for `C[C@@H]1C(=O)N(C)c2nc(Oc3cccc(F)c3)n(Cc3ccc(Cl)cc3)c2C(=O)N1CCCO` (single isomer, unassigned) [Compound 19], the pIC50 was below 4.52.
Then `CN1CC(=O)N(CCCO)C(=O)c2c1nc(Oc1cccc(OC(F)(F)F)c1)n2Cc1ccc(Cl)cc1` [Compound 21, 1-[(4-chlorophenyl)methyl]-7-(3-hydroxypropyl)-4-methyl-2-[3-(trifluoromethoxy)phenoxy]-1H,4H,5H,6H,7H,8H-imidazo[4,5-e][1,4]diazepine-6,8-dione], with 4.52 to 6.00.
Then `O=C1c2c(nc(Oc3cccc(OC(F)(F)F)c3)n2Cc2ccc(Cl)cc2)N2CCC[C@@H]2C(=O)N1CCCO` (single isomer, unassigned) [Compound 23], with 4.52 to 6.00; and `O=C1c2c(nc(Oc3cccc(OC(F)(F)F)c3)n2Cc2ccc(Cl)cc2)N2CCC[C@H]2C(=O)N1CCCO` (single isomer, unassigned) [Compound 22], with below 4.52.
